According to publication PMC8805605, “Discovery of Dimeric Arylsulfonamides as Potent ADAM8 Inhibitors” (ACS Medicinal Chemistry Letters, 2021):

Assays:
human recombinant ADAM8 = biological target: T1, human recombinant ADAM8 (Homo sapiens, UniProt P78325); assay: ADAM8 fluorometric inhibition assay; format: biochemical; details: for IC50: human recombinant enzyme, fluorometric assay, mean of three independent experiments in duplicate, read-out: In vitro inhibitory activity IC50 on ADAM8
T1 construct: kind gift of Franka Scharfenberg, University of Kiel
T1 sequence (P78325 17-824): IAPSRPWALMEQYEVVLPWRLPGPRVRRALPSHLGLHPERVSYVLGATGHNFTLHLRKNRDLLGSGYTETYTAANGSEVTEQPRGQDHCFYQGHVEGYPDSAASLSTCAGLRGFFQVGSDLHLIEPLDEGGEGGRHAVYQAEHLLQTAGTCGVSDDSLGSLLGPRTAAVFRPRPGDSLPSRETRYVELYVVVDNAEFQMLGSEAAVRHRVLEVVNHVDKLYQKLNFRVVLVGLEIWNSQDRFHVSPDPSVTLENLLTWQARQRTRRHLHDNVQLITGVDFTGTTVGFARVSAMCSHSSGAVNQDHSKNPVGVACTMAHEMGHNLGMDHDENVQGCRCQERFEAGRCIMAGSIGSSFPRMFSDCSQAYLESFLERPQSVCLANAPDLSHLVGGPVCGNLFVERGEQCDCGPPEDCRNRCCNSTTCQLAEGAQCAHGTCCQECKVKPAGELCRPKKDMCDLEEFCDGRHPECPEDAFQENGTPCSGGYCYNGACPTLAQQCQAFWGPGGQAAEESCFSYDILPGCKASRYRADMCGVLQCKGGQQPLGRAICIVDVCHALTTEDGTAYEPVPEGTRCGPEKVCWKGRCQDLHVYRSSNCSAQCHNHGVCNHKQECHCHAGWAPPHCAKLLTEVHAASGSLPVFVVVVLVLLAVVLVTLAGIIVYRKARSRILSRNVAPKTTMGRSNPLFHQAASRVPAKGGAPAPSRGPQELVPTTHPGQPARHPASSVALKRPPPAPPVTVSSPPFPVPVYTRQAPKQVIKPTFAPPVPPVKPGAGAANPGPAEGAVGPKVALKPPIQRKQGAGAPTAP
Protocol: (§1) The newly synthesized bivalent derivatives 1–3 were then tested in vitro on human recombinant ADAM8 in comparison with JG26 by a fluorometric assay. The inhibitory activity against a panel of MMPs and ADAM10/17 was determined as well to assess their selectivity profile.
(§2) (RFU). Percent of inhibition was calculated from control reactions without the inhibitor. IC50 was determined using the formula: v i/v o = 1/(1 + [I]/ IC50), where v i is the initial velocity of substrate cleavage in the presence of the inhibitor at concentration [I] and v o is the initial velocity in the absence of the inhibitor. Results were analyzed using SoftMax Pro software (version 5.4.3, Molecular Devices, Sunnyvale, CA) and Prism Software version 5.0 (GraphPad Software, Inc., La Jolla, CA, USA).
(§3) ADAM8 and ADAM17 inhibition assays
(§4) Recombinant ADAM8 and ADAM17 (kind gift of Franka Scharfenberg, University of Kiel) were diluted in assay buffer (25 mM Tris HCl, pH 8.0. 6x10-4 % Brij, 10 mM CaCl2, 10 mM ZnCl2) to a working concentration of 250 ng and incubated with inhibitors for 45 min in a total volume of 50 µL.
(§5) The fluorescent substrate PepDAB1310 was added in a concentration of 10 µM (in a volume of 50 µL). […]

ADAM17 = biological target: T2, ADAM17 (Homo sapiens, UniProt P78536); assay: ADAM17 fluorometric inhibition assay; format: biochemical; details: recombinant enzyme, mean of three independent experiments in duplicate, read-out: In vitro inhibitory activity IC50 on ADAM17
T2 construct: kind gift of Franka Scharfenberg, University of Kiel
T2 sequence (P78536 215-824, species assumed): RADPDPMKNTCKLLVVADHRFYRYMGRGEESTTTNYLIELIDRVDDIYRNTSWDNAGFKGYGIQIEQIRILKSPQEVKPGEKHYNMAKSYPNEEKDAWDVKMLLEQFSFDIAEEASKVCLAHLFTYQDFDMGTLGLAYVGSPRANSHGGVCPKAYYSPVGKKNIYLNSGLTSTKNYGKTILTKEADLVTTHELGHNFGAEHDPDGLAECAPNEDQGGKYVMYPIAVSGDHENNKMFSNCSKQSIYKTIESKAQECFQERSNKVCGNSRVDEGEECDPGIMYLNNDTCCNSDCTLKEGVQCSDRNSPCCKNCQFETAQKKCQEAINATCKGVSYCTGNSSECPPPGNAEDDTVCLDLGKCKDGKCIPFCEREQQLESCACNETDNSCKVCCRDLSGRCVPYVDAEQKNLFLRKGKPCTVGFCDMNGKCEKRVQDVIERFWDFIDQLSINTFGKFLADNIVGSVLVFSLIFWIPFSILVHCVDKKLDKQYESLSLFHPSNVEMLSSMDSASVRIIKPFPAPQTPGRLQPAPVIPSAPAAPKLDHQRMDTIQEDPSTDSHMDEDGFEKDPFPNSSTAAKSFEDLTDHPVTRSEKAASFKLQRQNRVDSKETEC
Protocol: as §1, §2, §3, §4, §5

[1] = test system: ADAM8-dependent shedding of CD23 in double-stable HEK cells (ADAM8/CD23); assay: Cell-based CD23 shedding assay (soluble CD23 ELISA); details: Homo sapiens, HEK293, 24 h incubation, 125 nM to 10 μM, ELISA of supernatants, read-out: IC50 for shedding of CD23 (soluble CD23 release)
Protocol: Next, these compounds were tested for their ability to inhibit the shedding of an ADAM8-dependent cell surface protein, the low affinity IgE receptor CD23, […]. In brief, a human embryonic kidney (HEK) cell line expressing ADAM8 and CD23[13] was incubated with different concentrations of inhibitors, and the release of soluble CD23 in the cell supernatants was determined by a CD23 enzyme-linked immunosorbent assay (ELISA) (Figure 4).
Figure 4 Effects of new compounds 1–3 and JG26 (125 nM to 10 μM) on the shedding of CD23 in a cell-based assay using double-stable HEK cells (ADAM8/CD23). After the incubation of cells with 1–3 and JG26 for 24 h, cell supernatants were collected and subjected to an ELISA to determine the amount of soluble CD23. Data are the mean values from three independent experiments performed in triplicate. […]
VII. Biological Activity on cells
Cell-based shedding assay
HEK293 cells stably transfected with ADAM8 and CD23 were incubated for 24 h at 37°C in the presence of inhibitors in concentrations indicated in DMEM medium supplemented with 10% fetal calf serum. A human soluble CD23 ELISA (R&D Systems, Biotechne, Wiesbaden) was used to detect ADAM8-dependent release of soluble CD23 in the cell culture medium. ELISA experiments were performed in three independent experiments in triplicates. The relative CD23 release (control = 100%) was determined for all samples. […]

Selectivity for ADAM8 over ADAM10 (human recombinant ADAM8; ratio of IC50 values ADAM10/ADAM8) | Times less active than compound 1 on ADAM8 (human recombinant ADAM8; ratio of ADAM8 IC50 values) | SMILES | IC50 (human recombinant ADAM8) | IC50 (ADAM17) | IC50 [1]
740 fold | – | O=C(CCCNC(=O)c1cccc(C(=O)NCCCC(=O)NCCC[C@@H](NS(=O)(=O)c2ccc(OCc3cc(Br)cc(Br)c3)cc2)C(=O)NO)c1)NCCC[C@@H](NS(=O)(=O)c1ccc(OCc2cc(Br)cc(Br)c2)cc1)C(=O)NO [Compound 1] | 0.041 µM | 0.052 µM | > 1.5 µM
– | – | O=C(NCCC[C@@H](NS(=O)(=O)c1ccc(OCc2cc(Br)cc(Br)c2)cc1)C(=O)NO)c1cccc(C(=O)NCCC[C@@H](NS(=O)(=O)c2ccc(OCc3cc(Br)cc(Br)c3)cc2)C(=O)NO)c1 [Compound 2] | 0.073 µM | 0.024 µM | 0.35 µM
– | – | NC(=O)NCCC[C@@H](NS(=O)(=O)c1ccc(OCc2cc(Br)cc(Br)c2)cc1)C(=O)NO [JG26, reference compound] | 0.012 µM | 0.0019 µM | 0.12 µM
– | 14 times | O=C(NCCC[C@@H](NS(=O)(=O)c1ccc(OCc2cc(Br)cc(Br)c2)cc1)C(=O)NO)NCCC[C@@H](NS(=O)(=O)c1ccc(OCc2cc(Br)cc(Br)c2)cc1)C(=O)NO [Compound 3] | 0.567 µM | 0.055 µM | 0.8 µM
